Where two headings read alike, the source gives them in different places.
Assays:
[1] = tested on: C3H/10T1/2 cells; conditions: 1 milliM; before, during and after radiation exposure; cited from earlier work
[2] = mouse, in vivo; cited from earlier work
[3] = some in vitro studies; cited from earlier work
[4] = mice, aminothiol delivered as the phosphorothioate, cited from earlier work
[5] = tested on: radiation-induced tumors; conditions: WR2721 plus radiation; cited from earlier work
[6] = tested on: radiation-induced tumors; conditions: 400 mg/kg, 206 cGy gamma rays; cited from earlier work
[7] = tested on: HPRT gene in mouse splenocytes; conditions: cited from earlier work
[8] = tested on: angiostatin; conditions: cited from earlier work
[9] = tested on: Sa-NH sarcoma cells; conditions: 50 mg/kg every other day for 6 days; 12 days without; cited from earlier work
[10] = tested on: Sa-NH tumors; conditions: cited from earlier work
[11] = tested on: advanced malignant melanoma; conditions: cited from earlier work
[12] = tested on: normal cells (liver, kidney, small intestine); conditions: cited from earlier work
[13] = children; cited from earlier work
[14] = tested on: prostate cancer cells; conditions: literature reports; cited from earlier work
[15] = tested on: TK6 human lymphoblastoid cells; format: cell-based; conditions: 1 milliM cyclophosphamide alone, 72 hours

CNCCCNCCCS [WR151326]
protection factor against neoplastic transformation [1]: 1.8

NCCCNCCS [WR-1065, 2-(3-aminopropylamino)-ethanethiol]
protection factor against neoplastic transformation [1]: 3.23 | 100% effective radioprotective dose [2]: about one half of the MTD | lowest efficacious concentration [3]: ≥ 0.4 µM | maximally tolerated dose (MTD) ([4]; i.p.): 432 mg/kg BW | maximally tolerated dose (MTD) ([4]; p.o.): 720 mg/kg BW

NCCCNCCSP(=O)(O)O [amifostine, S-2-(3-aminopropylamino)-ethylphosphorothioic Acid]
mice developing tumors [5]: 26% | extension of total life expectancy [6]: 65 days | reduction of cyclophosphamide-induced HPRT mutations [7]: 8 fold | change of angiostatin levels ([8]; 200 mg/ml (instead of 50 mg/ml)): did not change angiostatin levels | increase of serum angiostatin levels ([8]; mouse, in vivo): 4 fold | time for tumors to reach ideal size for amputation [9]: 13 days | effect on pulmonary metastases ([10]; 50 mg/kg): reduced significantly | effect on pulmonary metastases ([10]; 100 mg/kg): less effective | effect on metastases ([10]; 200 mg/kg): no effect | minor responses ([11]; combination of WR2721 and cisplatin, 3 out of 36 patients): 8% | partial response ([11]; combination of WR2721 and cisplatin): 53% | level with no observable cytotoxicity ([12]; kidney (in vivo)): > 17,000 picomol/10(6) cells | level with no observable cytotoxicity ([12]; liver (in vivo)): > 7400 picomol/10(6) cells | level with no observable cytotoxicity ([12]; small intestine (in vivo)): > 3000 picomol/10(6) cells | single doses with no untoward effects [13]: up to 2700 mg/m2 | effect upon prostate cancer cells [14]: radioprotective effect

N.N.[Cl][Pt][Cl] [cisplatin]
partial response ([11]; cisplatin alone): 10%

O=P1(N(CCCl)CCCl)NCCCO1 (stereo not drawn) [cyclophosphamide]
cell death [15]: 70%

Source: patent US11554174B2, “Methods for improved protection and delivery of aminothiols and analogs thereof” (THE BURLINGTON HC RESEARCH GROUP, INC., priority 2015, dated 2023)
